Results published in patent US20010008892A1 (priority 1998, published 2001).

Columns and labels:
MT4 cells = test: Cytotoxicity in MT4 cells (LC50, 50% of the cells remain viable); format: cell-based; conditions: MT4 cells; concentration at which 50% of the cells remain viable
Source text: (§1) The IC50 is the concentration of compound that gives 50% inhibition of the cytopathic effect of HIV. The LC50 is the concentration of compound at which 50% of the cells remain viable.

HIV = test: Antiviral activity: inhibition of the cytopathic effect of HIV in MT4 cells; format: cell-based; conditions: MT4 cells; 50% inhibition of the cytopathic effect of HIV; read-out: EC50
Source text: as §1

HIV-1 protease = HIV-1 protease (Human immunodeficiency virus type 1 group M subtype B, UniProt P04585); test: Fluorogenic assay for screening inhibitors of HIV protease; conditions: compound concentration 0.5 nM; fluorogenic substrate 1.3 μM, pH 4.5, 30° C.
Protocol: A compound of the invention is dissolved in DMSO. A small aliquot is diluted with DMSO to 100 times the final concentration desired for testing. The test is carried out in a 6×50 mm tube in a total volume of 300 microliters. The final concentrations of the components in the reaction buffer are: 125 mM sodium acetate, 1 M sodium chloride, 5 mM dithiothreitol, 0.5 mg/ml bovine serum albumin, 1.3 μM fluorogenic substrate, 2% (v/v) dimethylsulfoxide, pH 4.5. After addition of inhibitor, the reaction mixture is placed in the fluorometer cell holder and incubated at 30° C. for several minutes. The reaction is initiated by the addition of a small aliquot of cold HIV protease. The fluorescence intensity (excitation 340 nm, emmision 490 nM) is recorded as a function of time. The reaction rate is determined for the first six to eight minutes. The observed rate is directly proportional to the moles of substrate cleaved per unit time. The percent inhibition is 100×(1- (rate in presence of inhibitor)/(rate in absence of inhibitor)).
The test compounds were then tested at a concentration of 0.5 nM.

2-(1-Methylethyl)-4-thiazolylmethyl-(1S)-1-[[[(1S,2R)-3-[[(4-aminophenyl)sulfonyl](1-methylethyl)amino]-2-hydroxy-1-(phenylmethyl)propyl]amino]carbonyl]-2-methylpropyl]carbamate [Example 28]
CC50 (MT4 cells): 49.5 µM | EC50 (HIV): 0.011 µM | % Inhib. (0.5 nM) (HIV-1 protease): 77%

2-(1-Methylethyl)-4-thiazolylmethyl-[(1S)-1-[[[(1S,2R)-3-[(2S)-2-[[(1,1-dimethylethyl)amino]carbonyl]-4-(5-thienylmethyl)-1-piperazinyl]-2-hydroxy-1-(phenylmethyl)propyl]amino]carbonyl]-2-methylpropyl]carbamate [Example 4]
CC50 (MT4 cells): 69 µM | EC50 (HIV): 0.012 µM | % Inhib. (0.5 nM) (HIV-1 protease): 67%

2-(1-Methylethyl)-4-thiazolylmethyl-[(1S)-1-[[[(1S,2R)-3-[[[(1,1-dimethylethyl)amino]carbonyl](2-methylethyl)propylamino]-2-hydroxy-1-(phenylmethyl)propyl]amino]carbonyl]-2-methylpropyl]carbamate [Example 27]
CC50 (MT4 cells): 20.6 µM | EC50 (HIV): 0.374 µM | % Inhib. (0.5 nM) (HIV-1 protease): 50%

5-Thiazolylmethyl-[(1S)-1-[[[(1S,2R)-3-[(2S)-2-[[(1,1-dimethylethyl)amino]carbonyl]-4-(phenylmethyl)-1-piperazinyl]-2-hydroxy-1-(phenylmethyl)propyl]amino]carbonyl]-2-methylpropyl]carbamate [Example 24]
CC50 (MT4 cells): 55.4 µM | EC50 (HIV): 0.017 µM | % Inhib. (0.5 nM) (HIV-1 protease): 40%

CC(C)c1nc(COC(=O)N[C@H](C(=O)N[C@@H](Cc2ccccc2)[C@H](O)CN2CCN(Cc3ccc4c(c3)OCO4)C[C@H]2C(=O)NC(C)(C)C)C(C)C)cs1 [Example 1, 2-(1-Methylethyl)-4-thiazolylmethyl-[(1S)-1-[[[(1S,2R)-3-[(2S)-4-(1,3-benzodioxol-5-ylmethyl)-2-[[(1,1-dimethylethyl)amino]carbonyl]-1-piperazinyl]-2-hydroxy-1-(phenylmethyl)propyl]amino]carbonyl]-2-methylpropyl]carbamate]
CC50 (MT4 cells): 12.8 µM | EC50 (HIV): 0.003 µM | % Inhib. (0.5 nM) (HIV-1 protease): 60%

CC(C)c1nc(COC(=O)N[C@H](C(=O)N[C@@H](Cc2ccccc2)[C@H](O)CN2CCN(Cc3ccccc3)C[C@H]2C(=O)NC(C)(C)C)C(C)C)cs1 [Example 2, 2-(1-Methylethyl)-4-thiazolylmethyl-[(1S)-1-[[[(1S,2R)-3-[(2S)-2-[[(1,1-dimethylethyl)amino]carbonyl]-4-(phenylmethyl)-1-piperazinyl]-2-hydroxy-1-(phenylmethyl)propyl]amino]carbonyl]-2-methylpropyl]carbamate]
CC50 (MT4 cells): 47.1 µM | EC50 (HIV): 0.022 µM | % Inhib. (0.5 nM) (HIV-1 protease): 66%

CC(C)c1nc(COC(=O)N[C@H](C(=O)N[C@@H](Cc2ccccc2)[C@H](O)CN2CCN(Cc3ccc(F)cc3)C[C@H]2C(=O)NC(C)(C)C)C(C)C)cs1 [Example 3]
CC50 (MT4 cells): 15.7 µM | EC50 (HIV): 0.021 µM | % Inhib. (0.5 nM) (HIV-1 protease): 64%

CC(C)c1nc(COC(=O)N[C@H](C(=O)N[C@@H](Cc2ccccc2)[C@H](O)CN2CCN(Cc3cccc(O)c3)C[C@H]2C(=O)NC(C)(C)C)C(C)C)cs1 [Example 5, 2-(1-Methylethyl)-4-thiazolylmethyl-[(1S)-1-[[[(1S,2R)-3-[(2S)-2-[[(1,1-dimethylethyl)amino]carbonyl]-4-[4-(3-hydroxyphenyl)methyl]-1-piperazinyl]-2-hydroxy-1-(phenylmethyl)propyl]amino]carbonyl]-2-methylpropyl]carbamate]
CC50 (MT4 cells): 16.7 µM | EC50 (HIV): 0.04 µM | % Inhib. (0.5 nM) (HIV-1 protease): 69%

CC(C)c1nc(COC(=O)N[C@H](C(=O)N[C@@H](Cc2ccccc2)[C@H](O)CN2CCN(Cc3cccnc3)C[C@H]2C(=O)NC(C)(C)C)C(C)C)cs1 [Example 6, 2-(1-Methylethyl)-4-thiazolylmethyl-[(1S)-1-[[[(1S,2R)-3-[(2S)-2-[[(1,1-dimethylethyl)amino]carbonyl]-4-(3-pyridinylmethyl)-1-piperazinyl]-2-hydroxy-1-(phenylmethyl)propyl]amino]carbonyl]-2-methylpropyl]carbamate]
CC50 (MT4 cells): 58.6 µM | EC50 (HIV): 0.012 µM | % Inhib. (0.5 nM) (HIV-1 protease): 60%

CC(C)c1nc(COC(=O)N[C@H](C(=O)N[C@@H](Cc2ccccc2)[C@H](O)CN2CCN(Cc3ccncc3)C[C@H]2C(=O)NC(C)(C)C)C(C)C)cs1 [Example 7, 2-(1-Methylethyl)-4-thiazolylmethyl-[(1S)-1-[[[(1S,2R)-3-[(2S)-2-[[(1,1-dimethylethyl)amino]carbonyl]-4-(4-pyridinylmethyl)-1-piperazinyl]-2-hydroxy-1-(phenylmethyl)propyl]amino]carbonyl]-2-methylpropyl]carbamate]
CC50 (MT4 cells): 55.2 µM | EC50 (HIV): 0.017 µM | % Inhib. (0.5 nM) (HIV-1 protease): 73%

CC(C)c1nc(COC(=O)N[C@H](C(=O)N[C@@H](Cc2ccccc2)[C@H](O)CN2CCN(Cc3ccc(O)cc3)C[C@H]2C(=O)NC(C)(C)C)C(C)C)cs1 [Example 8, 2-(1-Methylethyl)-4-thiazolylmethyl-[(1S)-1-[[[(1S,2R)-3-[(2S)-2-[[(1,1-dimethylethyl)amino]carbonyl]-4-[(4-hydroxyphenyl)methyl]-1-piperazinyl]-2-hydroxy-1-(phenylmethyl)propyl]amino]carbonyl]-2-methylpropyl]carbamate]
CC50 (MT4 cells): 18.9 µM | EC50 (HIV): 0.047 µM | % Inhib. (0.5 nM) (HIV-1 protease): 54%

CC(C)c1nc(COC(=O)N[C@H](C(=O)N[C@@H](Cc2ccccc2)[C@H](O)CN2CCN(Cc3nc4ccccc4[nH]3)C[C@H]2C(=O)NC(C)(C)C)C(C)C)cs1 [Example 9]
CC50 (MT4 cells): 18.4 µM | EC50 (HIV): 0.046 µM | % Inhib. (0.5 nM) (HIV-1 protease): 65%

CC(C)c1nc(COC(=O)N[C@H](C(=O)N[C@@H](Cc2ccccc2)[C@H](O)CN2CCN(Cc3ccc4ccccc4n3)C[C@H]2C(=O)NC(C)(C)C)C(C)C)cs1 [Example 10, 2-(1-Methylethyl)-4-thiazolylmethyl-[(1S)-1-[[[(1S,2R)-3-[(2S)-2-[[(1,1-dimethylethyl)amino]carbonyl]-4-(2-quinolinylmethyl)-1-piperazinyl]-2-hydroxy-1-(phenylmethyl)propyl]amino]carbonyl]-2-methylpropyl]carbamate]
CC50 (MT4 cells): 18.2 µM | EC50 (HIV): 0.014 µM | % Inhib. (0.5 nM) (HIV-1 protease): 70%

COc1ccc(CN2CCN(C[C@@H](O)[C@H](Cc3ccccc3)NC(=O)[C@@H](NC(=O)OCc3csc(C(C)C)n3)C(C)C)[C@H](C(=O)NC(C)(C)C)C2)cc1OC [Example 11, 2-(1-Methylethyl)-4-thiazolylmethyl[(1S)-1-[[[(1S,2R)-3-[(2S)-4-[(3,4-dimethoxylphenyl)methyl]-2-[[(1,1-dimethylethyl)amino]carbonyl]-1-piperazinyl]-2-hydroxy-1-(phenylmethyl)propyl]amino]carbonyl]-2-methylpropyl]carbamate]
CC50 (MT4 cells): 18.3 µM | EC50 (HIV): 0.017 µM | % Inhib. (0.5 nM) (HIV-1 protease): 62%

Cc1nc(COC(=O)N[C@H](C(=O)N[C@@H](Cc2ccccc2)[C@H](O)CN2CCN(Cc3ccc4c(c3)OCO4)C[C@H]2C(=O)NC(C)(C)C)C(C)C)cs1 [Example 15, 2-Methyl-4-thiazolylmethyl-[(1S)-1-[[[(1S,2R)-3-[(2S)-4-(1,3-benzodioxol-5-ylmethyl)-2-[[(1,1-dimethylethyl)amino]carbonyl]-1-piperazinyl]-2-hydroxy-1-(phenylmethyl)propyl]amino]carbonyl]-2-methylpropyl]carbamate]
CC50 (MT4 cells): 53.1 µM | EC50 (HIV): 0.011 µM | % Inhib. (0.5 nM) (HIV-1 protease): 45%

COc1ccc(CN2CCN(C[C@@H](O)[C@H](Cc3ccccc3)NC(=O)[C@@H](NC(=O)OCc3csc(C)n3)C(C)C)[C@H](C(=O)NC(C)(C)C)C2)cc1OC [Example 16, 2-Methyl-4-thiazolylmethyl-[(1S)-1-[[[(1S,2R)-3-[(2S)-4-[(3,4-dimethoxylphenyl)methyl]-2-[[(1,1-dimethylethyl)amino]carbonyl]-1-piperazinyl]-2-hydroxy-1-(phenylmethyl)propyl]amino]carbonyl]-2-methylpropyl]carbamate]
CC50 (MT4 cells): 61.7 µM | EC50 (HIV): 0.01 µM | % Inhib. (0.5 nM) (HIV-1 protease): 49%

Cc1nc(COC(=O)N[C@H](C(=O)N[C@@H](Cc2ccccc2)[C@H](O)CN2CCN(Cc3ccc(F)cc3)C[C@H]2C(=O)NC(C)(C)C)C(C)C)cs1 [Example 17, 2-Methyl-4-thiazolylmethyl-[(1S)-1-[[[(1S,2R)-3-[(2S)-2-[[(1,1-dimethylethyl)amino]carbonyl]-4-[(4-fluorophenyl)methyl]-1-piperazinyl]-2-hydroxy-1-(phenylmethyl)propyl]amino]carbonyl]-2-methylpropyl]carbamate]
CC50 (MT4 cells): 39.2 µM | EC50 (HIV): 0.011 µM | % Inhib. (0.5 nM) (HIV-1 protease): 50%

CCc1nc(COC(=O)N[C@H](C(=O)N[C@@H](Cc2ccccc2)[C@H](O)CN2CCN(Cc3ccc(OC)c(OC)c3)C[C@H]2C(=O)NC(C)(C)C)C(C)C)cs1 [Example 18]
CC50 (MT4 cells): 44.6 µM | EC50 (HIV): 0.019 µM | % Inhib. (0.5 nM) (HIV-1 protease): 82%

COc1ccc(CN2CCN(C[C@@H](O)[C@H](Cc3ccccc3)NC(=O)[C@@H](NC(=O)OCc3cnc(C(C)C)s3)C(C)C)[C@H](C(=O)NC(C)(C)C)C2)cc1OC [Example 19, 2-(1-Methylethyl)-5-thiazolylmethyl-[(1S)-1-[[[(1S,2R)-3-[(2S)-4-[(3,4-dimethoxylphenyl)methyl]-2-[[(1,1-dimethylethyl)amino]carbonyl]-1-piperazinyl]-2-hydroxy-1-(phenylmethyl)propyl]amino]carbonyl]-2-methylpropyl]carbamate]
CC50 (MT4 cells): 20.7 µM | EC50 (HIV): 0.017 µM | % Inhib. (0.5 nM) (HIV-1 protease): 51%

CCc1ncc(COC(=O)N[C@H](C(=O)N[C@@H](Cc2ccccc2)[C@H](O)CN2CCN(Cc3ccc(OC)c(OC)c3)C[C@H]2C(=O)NC(C)(C)C)C(C)C)s1 [Example 20]
CC50 (MT4 cells): 49.7 µM | EC50 (HIV): 0.016 µM | % Inhib. (0.5 nM) (HIV-1 protease): 37%
